In general, inhibition refers to the drop in the measured response relative to a control, in per cent. In general, Ki refers to the dissociation constant of the complex between target and ligand, obtained from inhibition or displacement. Broadly, the IC50 is the concentration needed to halve the response being measured.

The values that follow come from ChEMBL document CHEMBL3217528, “Bicyclic imidazole-4-one derivatives: a new class of antagonists for the orphan G protein-coupled receptors GPR18 and GPR55” (Medchemcomm, 2014).

Structures are written as SMILES.

Experiment [1] has as its target T1, N-arachidonyl glycine receptor (Homo sapiens) (UniProt Q14330).
T1 sequence (whole entry): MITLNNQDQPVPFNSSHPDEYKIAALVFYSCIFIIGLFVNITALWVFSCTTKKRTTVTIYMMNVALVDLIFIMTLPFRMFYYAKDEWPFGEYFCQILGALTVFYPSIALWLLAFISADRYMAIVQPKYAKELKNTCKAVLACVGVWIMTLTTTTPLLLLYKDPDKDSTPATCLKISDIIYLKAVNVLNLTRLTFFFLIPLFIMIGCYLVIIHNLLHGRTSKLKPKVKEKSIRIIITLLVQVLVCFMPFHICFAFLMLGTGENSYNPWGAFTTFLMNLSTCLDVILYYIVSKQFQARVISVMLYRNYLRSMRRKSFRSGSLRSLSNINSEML
Put plainly: Agonist activity at human GPR18 expressed in CHO cells assessed as induction of beta-arrestin recruitment by beta-galactosidase enzyme fragment complementation method relative to delta9-THC. In kind it is cell-based. Set-up: concentration or dose not given beside the values.

Experiment [2] addresses Cannabinoid receptor 1 (Rattus norvegicus) (UniProt P20272). Description: Intrinsic activity at CB1 receptor in rat brain cortical membranes assessed as stimulation of [35S]GTPgammaS binding at 10 uM by liquid scintillation counting method relative to CP55,940. The class given is functional, cell membranes. A general note: GTPγS is a poorly hydrolysed GTP analogue; its binding reports G protein activation.

The target of experiment [3] is T2, G-protein coupled receptor 55 (Homo sapiens, UniProt Q9Y2T6). Put plainly: Antagonist activity against human GPR55 expressed in CHO cells assessed as reduction in LPI-induced beta-arrestin recruitment at 10 uM by beta-galactosidase enzyme fragment complementation method. In kind it is cell-based. In general terms: Arrestin recruitment assays detect the binding of arrestin to an activated receptor.
T2 sequence (Q9Y2T6 whole entry, the tested form may be a part): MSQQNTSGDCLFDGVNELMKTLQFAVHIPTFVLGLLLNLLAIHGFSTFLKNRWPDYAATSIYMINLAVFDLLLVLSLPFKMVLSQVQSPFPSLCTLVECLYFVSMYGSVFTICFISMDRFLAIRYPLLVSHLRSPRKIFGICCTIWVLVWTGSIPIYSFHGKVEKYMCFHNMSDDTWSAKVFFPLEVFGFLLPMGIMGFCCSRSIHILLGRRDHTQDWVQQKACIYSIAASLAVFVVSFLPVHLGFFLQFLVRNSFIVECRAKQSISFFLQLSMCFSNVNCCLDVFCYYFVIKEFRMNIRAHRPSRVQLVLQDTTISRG

In experiment [4] the target is T2, G-protein coupled receptor 55. Description: Agonist activity at human GPR55 expressed in CHO cells assessed as induction of LPI-induced beta-arrestin recruitment by beta-galactosidase enzyme fragment complementation method relative to LPI. In kind it is cell-based. Set-up: concentration or dose not given beside the values.
In experiment [5] the target is Cannabinoid receptor 1 (Rattus norvegicus, UniProt P20272). Description: Displacement of [3H]CP55,940 from CB1 receptor in rat brain cortical membranes. In kind it is cell membranes.
Chain of Cannabinoid receptor 1 (Rattus norvegicus, UniProt P20272) (P20272 whole entry): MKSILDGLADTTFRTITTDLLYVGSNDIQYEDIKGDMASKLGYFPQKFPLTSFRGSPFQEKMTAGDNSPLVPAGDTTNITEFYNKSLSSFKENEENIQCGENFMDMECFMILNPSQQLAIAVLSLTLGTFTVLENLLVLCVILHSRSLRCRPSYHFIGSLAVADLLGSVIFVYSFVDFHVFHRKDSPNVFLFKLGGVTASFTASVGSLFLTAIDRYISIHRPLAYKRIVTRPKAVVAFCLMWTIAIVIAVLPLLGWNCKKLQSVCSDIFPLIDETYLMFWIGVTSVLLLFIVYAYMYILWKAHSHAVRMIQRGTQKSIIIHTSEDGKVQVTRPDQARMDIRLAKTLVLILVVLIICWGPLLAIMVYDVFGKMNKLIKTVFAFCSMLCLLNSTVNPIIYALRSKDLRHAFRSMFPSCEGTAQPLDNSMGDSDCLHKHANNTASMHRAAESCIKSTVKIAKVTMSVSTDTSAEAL
Experiment [6] concerns the target T3, Cannabinoid receptor 2 (Homo sapiens, UniProt P34972). Put plainly: Displacement of [3H]CP55,940 from human recombinant CB2 receptor expressed in HEK293 cells. The class given is cell-based.
The target of experiment [7] is T4, Cannabinoid receptor 1 (Homo sapiens, UniProt P21554). Put plainly: Displacement of [3H]CP55,940 from human recombinant CB1 receptor expressed in CHO-K1 cells. In kind it is cell-based. (In a radioligand displacement assay an active substance lowers the binding of a labelled ligand.)
T4 sequence (P21554 whole entry): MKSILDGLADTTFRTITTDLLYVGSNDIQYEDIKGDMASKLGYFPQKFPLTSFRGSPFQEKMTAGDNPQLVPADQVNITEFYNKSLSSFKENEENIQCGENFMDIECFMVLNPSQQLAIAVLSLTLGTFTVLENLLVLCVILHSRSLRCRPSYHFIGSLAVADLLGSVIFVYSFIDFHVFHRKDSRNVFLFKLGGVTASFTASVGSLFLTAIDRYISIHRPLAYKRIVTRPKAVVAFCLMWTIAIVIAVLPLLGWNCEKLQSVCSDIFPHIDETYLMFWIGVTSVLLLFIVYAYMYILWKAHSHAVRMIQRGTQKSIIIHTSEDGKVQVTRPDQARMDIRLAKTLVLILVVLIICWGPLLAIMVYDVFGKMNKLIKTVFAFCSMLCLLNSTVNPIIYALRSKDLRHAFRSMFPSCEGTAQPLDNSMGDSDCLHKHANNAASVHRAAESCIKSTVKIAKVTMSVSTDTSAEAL
In experiment [8] the target is T4, Cannabinoid receptor 1. Description: Intrinsic activity at human recombinant CB1 receptor expressed in HEK293 cell membranes assessed as stimulation of [35S]GTPgammaS binding at 10 uM by liquid scintillation counting method relative to CP55,940. In kind it is functional.
Experiment [9] addresses T5, N-arachidonyl glycine receptor (Homo sapiens, UniProt Q14330).
T5 sequence (Q14330 whole entry): T1 sequence (whole entry)
Put plainly: Antagonist activity against human GPR18 expressed in CHO cells assessed as reduction in delta9-THC-induced beta-arrestin recruitment by beta-galactosidase enzyme fragment complementation method. The class given is cell-based.

Experiment [10] deals with T2, G-protein coupled receptor 55. Description: Antagonist activity against human GPR55 expressed in CHO cells assessed as reduction in LPI-induced beta-arrestin recruitment by beta-galactosidase enzyme fragment complementation method. In kind it is cell-based.
For experiment [11], the target named is T3, Cannabinoid receptor 2. Description: Displacement of [3H]CP55,940 from human recombinant CB2 receptor expressed in HEK293 cells at 10 uM. The class given is cell-based.
Experiment [12] has as its target T4, Cannabinoid receptor 1. Put plainly: Displacement of [3H]CP55,940 from human recombinant CB1 receptor expressed in CHO-K1 cells at 10 uM. In kind it is cell-based.
Experiment [13] concerns the target Cannabinoid receptor 1 (Rattus norvegicus) (UniProt P20272). Description: Displacement of [3H]CP55,940 from CB1 receptor in rat brain cortical membranes at 10 uM. In kind it is cell membranes.
The target of experiment [14] is T1, N-arachidonyl glycine receptor (Homo sapiens). Description: Antagonist activity against human GPR18 expressed in CHO cells assessed as reduction in delta9-THC-induced beta-arrestin recruitment at 10 uM by beta-galactosidase enzyme fragment complementation method. In kind it is cell-based.

T3 sequence (P34972 whole entry): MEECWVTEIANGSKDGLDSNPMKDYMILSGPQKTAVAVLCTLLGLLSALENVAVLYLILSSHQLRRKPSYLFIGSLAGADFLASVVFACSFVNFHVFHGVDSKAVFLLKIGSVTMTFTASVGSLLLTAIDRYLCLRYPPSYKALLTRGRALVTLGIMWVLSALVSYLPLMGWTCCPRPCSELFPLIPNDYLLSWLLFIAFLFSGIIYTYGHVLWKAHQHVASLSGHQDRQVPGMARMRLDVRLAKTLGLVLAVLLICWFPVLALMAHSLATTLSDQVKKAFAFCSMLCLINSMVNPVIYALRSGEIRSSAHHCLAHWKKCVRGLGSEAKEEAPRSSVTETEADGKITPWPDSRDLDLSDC
Chain of Cannabinoid receptor 1 (Rattus norvegicus) (P20272 whole entry, the tested form may be a part): as the sequence (P20272 whole entry) above

Take `O=C1/C(=C/c2cccc(Oc3ccccc3)c2)N=C2SCCCCN12`: the Activity in experiment [1] was determined as 1%; in experiment [4], 5%. In addition, the Intrinsic activity in experiment [2] was -21%; at Cannabinoid receptor 1 [8], -37%. The inhibition stood at 33% in experiment [3] and 21% at Cannabinoid receptor 2 [11]. The Ki is 3.63 µM on Cannabinoid receptor 1 [5], > 10 µM on Cannabinoid receptor 2 [6] and 1.6 µM on Cannabinoid receptor 1 [7]. For the same molecule, the IC50 in [9] was 14.1 µM; in experiment [10], > 10 µM.
Regarding `O=C1/C(=C/c2ccc([N+](=O)[O-])cc2)N=C2SCCCN12`, the inhibition at Cannabinoid receptor 1 [12] stood at 0%; in experiment [3], 12%; in experiment [13] it was 23%; in experiment [14] it was 20%; on Cannabinoid receptor 2 [11] it was 20%. The Activity in experiment [1] is 0%; in experiment [4] it was 39%. The Ki on Cannabinoid receptor 1 [5], at Cannabinoid receptor 2 [6] and at Cannabinoid receptor 1 [7] was > 10 µM in each case. Also, the IC50 in [9] and in experiment [10] was > 10 µM throughout.
In the case of `COc1ccc(/C=C2\N=C3SCCCN3C2=O)cc1OC`, the inhibition came out at 7% at Cannabinoid receptor 1 [12]; 12% in experiment [3]; 3% in experiment [13]; 2% in experiment [14]; 18% on Cannabinoid receptor 2 [11]. The Activity in experiment [1] turned out to be 0%; in experiment [4] it was 6%. The Ki at Cannabinoid receptor 1 [5], on Cannabinoid receptor 2 [6] and on Cannabinoid receptor 1 [7] was > 10 µM each time. For the same molecule, the IC50 in [9] and in [10] was > 10 µM each time.
As to `COc1ccccc1/C=C1\N=C2SCCCN2C1=O`, the inhibition on Cannabinoid receptor 1 [12] stood at 4%; in [3], 33%; in experiment [13] it was 4%; in [14], 0%; on Cannabinoid receptor 2 [11], 27%. For the same molecule, the Activity in experiment [1] is 0%; in experiment [4] it was 12%. The Ki at Cannabinoid receptor 1 [5], on Cannabinoid receptor 2 [6] and on Cannabinoid receptor 1 [7] was > 10 µM throughout. Also, the IC50 in [9] and in [10] was > 10 µM each time.
Take `CCOC(=O)C1CN2C(=NC(=O)C2(c2ccccc2)c2ccccc2)S1` (stereo not drawn): the inhibition is 26% at Cannabinoid receptor 1 [12]; 41% in [3]; 0% in experiment [13]; 0% in experiment [14]; -5% on Cannabinoid receptor 2 [11]. Moreover, the Activity in experiment [1] turned out to be 7%; in [4], 58%. Further, the Ki on Cannabinoid receptor 1 [5], at Cannabinoid receptor 2 [6] and at Cannabinoid receptor 1 [7] was > 10 µM in each case. Also, the IC50 in [9] and in [10] was > 10 µM throughout.
In the case of `O=C1N=C2SCCCN2C1(c1ccccc1)c1ccccc1`, the inhibition at Cannabinoid receptor 1 [12] was found to be 13%; in [3], 2%; in experiment [13], 4%; in experiment [14] it was 0%; on Cannabinoid receptor 2 [11], 9%. For the same molecule, the Activity in [1] turned out to be 11%; in [4], 53%. In addition, the Ki on Cannabinoid receptor 1 [5], on Cannabinoid receptor 2 [6] and on Cannabinoid receptor 1 [7] was > 10 µM throughout. For the same molecule, the IC50 in experiment [9] and in [10] was > 10 µM each time.
With `O=C1N=C2SCCCCN2C1(c1ccccc1)c1ccccc1`, the inhibition on Cannabinoid receptor 1 [12] turned out to be 34%; in experiment [3], 32%; in experiment [14], 0%; at Cannabinoid receptor 2 [11], 10%. The Activity in experiment [1] is 11%; in experiment [4], 10%. For the same molecule, the Intrinsic activity is -19% in experiment [2] and -48% at Cannabinoid receptor 1 [8]. Besides, the Ki on Cannabinoid receptor 1 [5] was 21.3 µM; on Cannabinoid receptor 2 [6] it was > 10 µM; on Cannabinoid receptor 1 [7] it was > 10 µM. Also, the IC50 in experiment [9] and in experiment [10] was > 10 µM each time.
On to `O=C1N=C2SCCN2C1(c1ccccc1)c1ccccc1`, for which the inhibition on Cannabinoid receptor 1 [12] amounted to 30%; in experiment [3], 31%; in [13], 13%; in experiment [14], 0%; on Cannabinoid receptor 2 [11] it was 6%. In addition, the Activity was found to be 21% in experiment [1] and 50% in experiment [4]. Moreover, the inhibition constant (Ki) on Cannabinoid receptor 1 [5], on Cannabinoid receptor 2 [6] and at Cannabinoid receptor 1 [7] was > 10 µM in each case. For the same molecule, the IC50 in experiment [9] and in experiment [10] was > 10 µM throughout.
On to `O=C1/C(=C/c2ccc(Br)cc2)N=C2SCCCN12`, for which the inhibition on Cannabinoid receptor 1 [12] came out at 29%; in experiment [3] it was 16%; in experiment [13], 21%; in [14], 13%; at Cannabinoid receptor 2 [11], 8%. For the same molecule, the figures for the Activity in [1] and in experiment [4] were 0% and 26%, respectively. The Ki at Cannabinoid receptor 1 [5], at Cannabinoid receptor 2 [6] and on Cannabinoid receptor 1 [7] was > 10 µM in each case. Also, the IC50 in [9] and in experiment [10] was > 10 µM each time.
For `O=C1/C(=C/c2ccc(Cl)cc2)N=C2SCCCN12`, the inhibition on Cannabinoid receptor 1 [12] was 25%; in experiment [3] it was 35%; in experiment [13], 15%; in experiment [14], 18%; at Cannabinoid receptor 2 [11], 23%. Moreover, the results for the Activity in experiment [1] and in experiment [4] were 13% and 0%, respectively. In addition, the Ki at Cannabinoid receptor 1 [5], on Cannabinoid receptor 2 [6] and on Cannabinoid receptor 1 [7] was > 10 µM each time. Moreover, the IC50 in experiment [9] and in experiment [10] was > 10 µM throughout.
With `O=C1/C(=C/C=C/c2ccccc2)N=C2SCCCN12`, the inhibition on Cannabinoid receptor 1 [12] amounted to 16%; in experiment [3], 27%; in experiment [13], 18%; in experiment [14], 0%; on Cannabinoid receptor 2 [11] it was 37%. Further, the Activity in experiment [1] came out at 7%; in experiment [4] it was 29%. For the same molecule, the Ki on Cannabinoid receptor 1 [5], at Cannabinoid receptor 2 [6] and at Cannabinoid receptor 1 [7] was > 10 µM throughout. For the same molecule, the IC50 in experiment [9] and in [10] was > 10 µM throughout.
In the case of `CC(C)c1ccc(/C=C2\N=C3SCCCN3C2=O)cc1`, the inhibition stood at 12% on Cannabinoid receptor 1 [12]; 38% in experiment [3]; 6% in experiment [13]; 4% in [14]; 17% on Cannabinoid receptor 2 [11]. Also, the results for the Activity in [1] and in [4] were 0% and 13%, respectively. The Ki on Cannabinoid receptor 1 [5], on Cannabinoid receptor 2 [6] and on Cannabinoid receptor 1 [7] was > 10 µM in each case. In addition, the IC50 in experiment [9] and in experiment [10] was > 10 µM in each case.
With `C/C(=C1/N=C2SCCCCN2C1=O)c1ccccc1`, the inhibition at Cannabinoid receptor 1 [12] worked out at 10%; in [3], 25%; in experiment [13] it was 3%; in experiment [14] it was 4%; at Cannabinoid receptor 2 [11] it was 17%. In addition, the Activity in experiment [1] came out at 14%; in [4], 1%. For the same molecule, the Ki at Cannabinoid receptor 1 [5], at Cannabinoid receptor 2 [6] and at Cannabinoid receptor 1 [7] was > 10 µM throughout. Also, the IC50 in experiment [9] and in experiment [10] was > 10 µM throughout.
`CCOC(=O)C1CN2C(=O)C(c3ccccc3)(c3ccccc3)N=C2S1` (stereo not drawn): the inhibition on Cannabinoid receptor 1 [12] is 2%; in experiment [3], 10%; in experiment [13], 38%; in experiment [14], 0%; on Cannabinoid receptor 2 [11] it was 0%. Besides, the Activity in [1] worked out at 11%; in [4] it was 39%. For the same molecule, the Ki at Cannabinoid receptor 1 [5], on Cannabinoid receptor 2 [6] and at Cannabinoid receptor 1 [7] was > 10 µM throughout. The IC50 in experiment [9] and in [10] was > 10 µM in each case.
